Test results published in Sander's compilation of Henry's law constants (doi:10.1021/je3010535).

assay: Henry solubility constant Hcp at 298.15 K (mol/(m3 Pa)); conditions: reference: Hiatt (2013)

Row | Compound | Henry solubility constant Hcp
1 | Cc1ccc(C)c(C)c1 [1,2,4-trimethylbenzene] | 0.0032
2 | Fc1cc(F)c(F)c(F)c1F [pentafluorobenzene] | 0.00075
3 | ClCCl [dichloromethane] | 0.004
4 | c1ccc2ccccc2c1 [naphthalene] | 0.033
5 | Cc1cc(Br)cc(Br)c1 [3,5-dibromotoluene] | 0.017
6 | [2H]C([2H])([2H])C([2H])([2H])OC([2H])([2H])C([2H])([2H])[2H] [diethyl ether-d10] | 0.013
7 | CCOCC [diethyl ether] | 0.011
8 | ClCBr [bromochloromethane] | 0.0066
9 | [2H]c1c([2H])c([2H])c(C(C)=O)c([2H])c1[2H] [1-phenylethanone-d5] | 2.3
10 | CC=C(Cl)Cl [1,1-dichloropropene] | 0.00061
11 | CCc1ccccc1 [ethylbenzene] | 0.002
12 | C=CCl [chloroethene] | 0.00039
13 | C=Cc1ccccc1 [ethenylbenzene] | 0.0044
14 | C[13C](C)=O [propanone-2-13C] | 0.31
15 | Cc1ccc(Cl)cc1 [1-chloro-4-methylbenzene] | 0.0041
16 | [2H]c1c([2H])c([2H])c2c([2H])c([2H])c([2H])c([2H])c2c1[2H] [naphthalene-d8] | 0.035
17 | ClCCCCl [1,3-dichloropropane] | 0.013
18 | ClC(Cl)C(Cl)Cl [1,1,2,2-tetrachloroethane] | 0.033
19 | CI [iodomethane] | 0.0018
20 | ClCc1ccccc1 [(chloromethyl)-benzene] | 0.02
21 | C=CC#N [2-propenenitrile] | 0.12
22 | ClCC(Cl)Cl [1,1,2-trichloroethane] | 0.014
23 | [2H]C([2H])=C([2H])Cl [chloroethene-d3] | 0.00038
24 | Fc1ccc(Br)cc1 [1-bromo-4-fluorobenzene] | 0.0053
25 | CCCl [chloroethane] | 0.00085

Row | Compound | Henry solubility constant Hcp
26 | Clc1cccc(Cl)c1Cl [1,2,3-trichlorobenzene] | 0.015
27 | [2H]c1c([2H])c([2H])c([N+](=O)[O-])c([2H])c1[2H] [nitrobenzene-d5] | 0.85
28 | CCCCc1ccccc1 [butylbenzene] | 0.002
29 | ClC(Cl)=C(Cl)C(Cl)=C(Cl)Cl [hexachlorobutadiene] | 0.0023
30 | [2H]c1c([2H])c([2H])c(C([2H])([2H])[2H])c([2H])c1[2H] [methylbenzene-d8] | 0.002
31 | Cl/C=C/CCl [trans-1,3-dichloropropene] | 0.0058
32 | [2H]c1c([2H])c(Cl)c(Cl)c(Cl)c1[2H] [1,2,3-trichlorobenzene-d3] | 0.015
33 | COC(C)=O [methyl ethanoate] | 0.12
34 | Cc1cc(C)cc(C)c1 [1,3,5-trimethylbenzene] | 0.0023
35 | [2H]C([2H])([2H])C(=O)C([2H])([2H])CCC [2-hexanone-1,1,1,3,3-d5] | 0.17
36 | ClC=C(Cl)Cl [trichloroethene] | 0.0012
37 | C=CCCl [3-chloro-1-propene] | 0.0013
38 | Clc1ccc(Cl)cc1 [1,4-dichlorobenzene] | 0.0058
39 | C1CCCCC1 [cyclohexane] | 0.00032
40 | ClC(Cl)C(Cl)(Cl)Cl [pentachloroethane] | 0.0059
41 | BrCBr [dibromomethane] | 0.012
42 | [2H]c1c([2H])c([2H])c(C([2H])([2H])[2H])c(C([2H])([2H])[2H])c1[2H] [1,2-dimethylbenzene-d10] | 0.003
43 | Fc1ccccc1 [fluorobenzene] | 0.0016
44 | S=C=S [carbon disulfide] | 0.00057
45 | C=C(Cl)Cl [1,1-dichloroethene] | 0.00041
46 | CCO[13C](C)=O [ethyl ethanoate-1-13C] | 0.071
47 | Clc1ccccc1 [chlorobenzene] | 0.0037
48 | Cc1cc(C(C)(C)C)cc(C(C)(C)C)c1 [3,5-di-tert-butyltoluene] | 0.0037
49 | ClCC(Cl)(Cl)Cl [1,1,1,2-tetrachloroethane] | 0.0048
50 | Cl/C=C\CCl [cis-1,3-dichloropropene] | 0.0095

Row | Compound | Henry solubility constant Hcp
51 | ClC(Cl)=C(Cl)Cl [tetrachloroethene] | 0.00099
52 | CC#N [ethanenitrile] | 0.6
53 | Cc1ccc2ccccc2c1 [2-methylnaphthalene] | 0.035
54 | COCCO [2-methoxyethanol] | 4.4
55 | CBr [bromomethane] | 0.0013
56 | CC(Cl)(Cl)Cl [1,1,1-trichloroethane] | 0.00069
57 | ClC(Cl)Br [bromodichloromethane] | 0.0052
58 | CC(C)c1ccccc1 [(2-propyl)-benzene] | 0.0014
59 | ClCC(Br)CBr (centres undefined) [1,2-dibromo-3-chloropropane] | 0.097
60 | [2H]C([2H])([2H])C([2H])(Cl)C([2H])([2H])Cl (centres undefined) [1,2-dichloropropane-d6] | 0.0036
61 | [2H]C([2H])(O)C([2H])([2H])Cl [2-chloroethanol-d4] | 5
62 | O=[N+]([O-])c1ccccc1 [nitrobenzene] | 0.64
63 | [2H]C([2H])([2H])C1([2H])C([2H])([2H])C([2H])([2H])C([2H])([2H])C([2H])([2H])C1([2H])[2H] [methylcyclohexane-d14] | 0.00031
64 | C=C(C)C(=O)OC [methyl methacrylate] | 0.043
65 | Cc1cccc2ccccc12 [1-methylnaphthalene] | 0.044
66 | CCCc1ccccc1 [propylbenzene] | 0.0019
67 | [2H]c1c([2H])c([2H])c([2H])c([2H])c1[2H] [benzene-d6] | 0.0018
68 | CCCCC(C)=O [2-hexanone] | 0.15
69 | FC(F)(Cl)Cl [dichlorodifluoromethane] | 0.00013
70 | Brc1ccccc1 [bromobenzene] | 0.006
71 | ClCc1ccccc1CCl [α,α-dichloro-o-xylene] | 0.1
72 | Fc1c(F)c(F)c(F)c(F)c1F [hexafluorobenzene] | 0.00055
73 | Cc1ccccc1 [methylbenzene] | 0.0021
74 | [2H]c1c([2H])c([2H])c2c(C([2H])([2H])[2H])c([2H])c([2H])c([2H])c2c1[2H] [1-methylnaphthalene-d10] | 0.046
75 | Fc1c(F)c(F)c(-c2c(F)c(F)c(F)c(F)c2F)c(F)c1F [decafluorobiphenyl] | 0.0067

Row | Compound | Henry solubility constant Hcp
76 | ClC/C=C\CCl [(Z)-1,4-dichloro-2-butene] | 0.03
77 | [2H]c1c([2H])c([2H])c(Cl)c([2H])c1[2H] [chlorobenzene-d5] | 0.0036
78 | CC(=O)CC(C)C [4-methyl-2-pentanone] | 0.1
79 | Cc1ccc(C(C)C)cc1 [1-methyl-4-(1-methylethyl)-benzene] | 0.0018
80 | CCCCC(C)CO (centres undefined) [2-methyl-1-hexanol] | 0.69
81 | CC(C)(Cl)Cl [2,2-dichloropropane] | 0.00044
82 | CC(=O)c1ccccc1 [1-phenylethanone] | 0.97
83 | [2H]C([2H])(Cl)Cl [dichloromethane-d2] | 0.0038
84 | [2H]c1c([2H])c([2H])c(Br)c([2H])c1[2H] [bromobenzene-d5] | 0.0065
85 | CC(C)O [2-propanol] | 1.1
86 | ClC(Cl)(Cl)Cl [tetrachloromethane] | 0.0005
87 | CC(C)(C)c1ccccc1 [(1,1-dimethylethyl)-benzene] | 0.0016
88 | ClC/C=C/CCl [(E)-1,4-dichloro-2-butene] | 0.035
89 | BrC(Br)Br [tribromomethane] | 0.022
90 | [2H]c1c([2H])c([2H])c(C([2H])([2H])C([2H])([2H])[2H])c([2H])c1[2H] [ethylbenzene-d10] | 0.002
91 | c1ccccc1 [benzene] | 0.0018
92 | Cc1ccccc1C [1,2-dimethylbenzene] | 0.0032
93 | CC1CCCCC1 [methylcyclohexane] | 0.00032
94 | ClC(Br)Br [dibromochloromethane] | 0.011
95 | CC(Cl)CCl (centres undefined) [1,2-dichloropropane] | 0.0043
96 | CCC(C)c1ccccc1 (centres undefined) [(1-methylpropyl)-benzene] | 0.0013
97 | ClCC(Cl)CCl [1,2,3-trichloropropane] | 0.042
98 | Clc1cccc(Cl)c1 [1,3-dichlorobenzene] | 0.0052
99 | [2H]C([2H])(Cl)C([2H])(Cl)Cl [1,1,2-trichloroethane-d3] | 0.013
